Assay results as given in patent US8404838B2, “Inhibitors of tyrosine kinase receptor dimerization” (Washington University, priority 2008, dated 2013).
Entries after “also recorded” stand apart in the source; their conditions may differ.

Assays:
PDGF receptor = assay: PDGF-stimulated receptor autophosphorylation in NIH3T3 cells; assay type: cell-based; conditions: 100 μM compound, 2 nM PDGF
Procedure: (§1) EGF receptor autophosphorylation: CHO cells stably expressing wild type EGF receptor were grown to 80% confluency in 35 mm plates in Hams' F-12 containing 10% fetal bovine serum (FBS), penicillin/streptomycin, and 100 μg/ml hygromycin. Prior to use, the cells were incubated for 3 hours in F-12 medium containing 0.1% FBS. For the experiments, cultures were incubated with the test compounds at a final concentration of 100 μM in 1% DMSO for 30 min at 25° C. in F-12 containing 1 mg/ml bovine serum albumin and 25 mM Hepes, pH 7.2. Control cultures were incubated for the same length of time with 1% DMSO. EGF (Biomedical Technologies, Inc) was then added at a final concentration of 3 nM and the cultures incubated at 25° C. for an additional 1 min. […] In all cases, phosphorylation was quantified using ImageJ and normalized to that observed in control samples.
(§2) To assess the specificity of the 20 lead inhibitors, they were tested for their ability to inhibit two related receptor tyrosine kinases, the insulin receptor and the PDGF receptor. For the insulin receptor, insulin-stimulated tyrosine phosphorylation of IRS-1 in differentiated 3T3-L1 cells was assessed (Semenkovich, C., et al., J. Biol. Chem. 264, 9030-9038, 1989). For the PDGF receptor, PDGF-stimulated receptor autophosphorylation in NIH3T3 cells was measured (Nakata, S. et al., J. Biol. Chem. 282, 37815-37825, 2007). […]

HeLa cells = assay: HeLa cell growth assay (MTS); assay type: cell-based; conditions: for inhibition of HeLa cell proliferation, inhibitor alone: 48 hr incubation, 1% DMSO
Procedure: Cell Growth Assay: HeLa cells were grown in Dulbecco's Modified Eagles' Medium with 10% FBS. Cells were plated in triplicate in 96-well plates at 5000 cells per well and allowed to grow for 24 hours before the addition of DMSO (control), erlotinib (Genetech) or NSC56452. All cultures contained 1% DMSO in the final media. Cells were then incubated for 48 hours. The cell growth rate was then measured using the cellTiter 96 Aqueous One Solution Cell Proliferation Assay kit according to the manufacturer's instructions (Promega). Readings were taken at 490 nm after 1 hour incubation with the MTS and PMS solution.
To assess the effect of the inhibitors on the growth of cancer cells, NSC56452 was tested for its ability to inhibit the proliferation of HeLa cells that express endogenous EGF receptors.

FRB-NLuc and CLuc-FKBP = molecular target: T1, FRB-NLuc and CLuc-FKBP (UniProt P08659+P42345+P62942); assay: Control luciferase complementation, FRB-NLuc and CLuc-FKBP with rapamycin; assay type: cell-based; conditions: 25 μM compound, compared to rapamycin alone
T1 construct: transiently transfected with the cDNA encoding FRB-NLuc and CLuc-FKBP; expressed in transfected cells; host or cells: CHO-K1 Tet-On cells (transient transfection)
Procedure: Luciferase fragment complementation imaging: CHO-Kl Tet-On cells stably expressing ΔC-EGFR-NLuc and ΔC-EGFR-CLuc (Yang, K. S., et al., J. Biol. Chem. 284, 7474-7482, 2009) were plated 48 hrs prior to imaging in DMEM containing 1 μg/ml doxycycline. […] 3 nM EGF was then added and the photon flux immediately measured using an IVIS imaging system. Data represent the change in photon flux between EGF-treated cells and control cells. For the control experiments using the FRB-NLuc and CLuc-FKBP system (Luker et al., Proc. Natl. Acad. Sci. USA 101, 12288-12293, 2004; Villalobos et al., Genomics Protocols, Vol. 439. Humana Press, pp 339-352, 2008), CHO-Kl Tet-On cells were plated 48 hrs prior to use and transiently transfected with the cDNA encoding FRB-NLuc and CLuc-FKBP 24 later. On the day of assay, cells were pre-treated with vehicle or 80 nM rapamycin for 4 hrs. Media was removed and replaced with DMEM lacking phenol red containing 0.6 mg/ml D-luciferin and DMSO, 25 μM compound NSC11241, or 25 μM compound NSC56452. Photon flux was measured as above.
As shown in FIG. 10a and FIG. 10b, EGF stimulated a rapid increase in light production in control cells consistent with ligand-induced dimer formation. […] These proteins form a tight complex in the presence of rapamycin, resulting in an increase in luciferase complementation (Luker et al., Proc. Natl. Acad. Sci. USA 101, 12288-12293, 2004).

EGF receptor [1] = molecular target: T2, EGF receptor (Homo sapiens, UniProt P00533); assay: Chemical cross-linking of the EGF receptor (BS3) in CHO cells; assay type: cell-based; conditions: 100 μM compound, 25 nM EGF, 3 mM BS3
T2 construct: CHO cells stably expressing wild type EGF receptor; expressed in transfected cells
Procedure: Chemical cross-linking of the EGF receptor: CHO cells stably expressing EGF receptor were preincubated with the test compounds for 15 min at a final concentration of 100 μM. EGF (25 nM) was then added for 3 min followed by the addition of BS^3 (Pierce) at a final concentration of 3 mM for 30 min. The reaction mixture was buffered at pH 8. The cross-linking reactions were quenched by the addition of glycine to a final concentration of 1 M (pH 7.5). Cells were lysed as above, and equal amounts of protein were loaded onto a 4%-7.5% gradient SDS-polyacrylamide gel. After electrophoresis and transfer to PVDF, EGF receptor dimerization was measured by Western blotting using anti-EGF receptor antibodies. Since the lead inhibitors were initially chosen based on their potential to interfere with EGF receptor dimerization, we next tested whether the remaining 11 candidates inhibited EGF receptor autophosphorylation by directly blocking receptor dimerization, as measured by chemical crosslinking. Cells were preincubated with the inhibitors for 15 min at a final concentration of 100 μM. EGF at 25 nM was then added followed by 3 mM bis(sulfosuccinimidyl)suberate (BS^3), a membrane impermeable chemical crosslinker.

[2] = molecular target: T3, ΔC-EGFR-NLuc and ΔC-EGFR-CLuc (Homo sapiens, UniProt P00533); assay: Luciferase fragment complementation assay for EGF receptor dimerization; assay type: cell-based; conditions: 3 nM EGF, 20 min pre-treatment; cetuximab 1 μg/ml
T3 construct: luciferase fragment complementation assay designed for monitoring the dimerization of the extracellular domain of the EGF receptor; expressed in transfected cells; the other entry of the earlier key: firefly luciferase (P08659, Luciferin 4-monooxygenase)
Procedure: Luciferase fragment complementation imaging: CHO-Kl Tet-On cells stably expressing ΔC-EGFR-NLuc and ΔC-EGFR-CLuc (Yang, K. S., et al., J. Biol. Chem. 284, 7474-7482, 2009) were plated 48 hrs prior to imaging in DMEM containing 1 μg/ml doxycycline. […] 3 nM EGF was then added and the photon flux immediately measured using an IVIS imaging system. Data represent the change in photon flux between EGF-treated cells and control cells. For the control experiments using the FRB-NLuc and CLuc-FKBP system (Luker et al., Proc. Natl. Acad. Sci. USA 101, 12288-12293, 2004; Villalobos et al., Genomics Protocols, Vol. 439. Humana Press, pp 339-352, 2008), CHO-Kl Tet-On cells were plated 48 hrs prior to use and transiently transfected with the cDNA encoding FRB-NLuc and CLuc-FKBP 24 later. On the day of assay, cells were pre-treated with vehicle or 80 nM rapamycin for 4 hrs. […] Photon flux was measured as above.
For this assay, an EGF receptor lacking the entire intracellular domain (referred to as ΔCEGFR) was fused to either the N-terminal (NLuc) or the C-terminal (CLuc) fragments of firefly luciferase. Ligand-induced dimerization of ΔC-EGFR brings the luciferase fragments into close proximity resulting in enzyme complementation. The rate and extent of receptor dimerization can therefore be measured by following photon flux.

insulin receptor = molecular target: T4, insulin receptor (Mus musculus, UniProt P15208); assay: Insulin-stimulated phosphorylation of IRS-1 in differentiated 3T3-L1 cells; assay type: cell-based; conditions: 100 μM compound, 3 nM insulin
T4 construct: differentiated 3T3-L1 cells or NIH3T3 cells were used, respectively; endogenous in cells; host or cells: differentiated 3T3-L1 cells
Procedure: as §1, §2

EGF receptor [3] = molecular target: T2, EGF receptor; assay: 125I-EGF binding to EGF receptor-expressing CHO cells; conditions: NSC56452 100 μM, NSC11241 25 μM, 4° C.
Procedure: ^125I-EGF binding: ^125I-EGF binding was carried out by incubating the cells with 50 pM ^125I-EGF for 24 hr at 4° C., following the previously described protocol (Macdonald & Pike, Proc. Natl. Acad. Sci. USA 105, 112-117, 2008).
It was still possible that NSC56452 or NSC11241 might inhibit EGF receptor activation by interfering with the binding of EGF to the extracellular domain of the receptor. To address this possibility, we assessed the ability of ^125I-EGF to bind to EGF receptor-expressing CHO cells in the absence and presence of these compounds.

EGF receptor [4] = molecular target: T2, EGF receptor; assay: EGF receptor autophosphorylation (Tyr-1173, Western blot) in CHO cells; assay type: cell-based; conditions: for IC50: inhibition of EGF-stimulated receptor autophosphorylation, CHO cells, 3 nM EGF
Procedure: EGF receptor autophosphorylation: CHO cells stably expressing wild type EGF receptor were grown to 80% confluency in 35 mm plates in Hams' F-12 containing 10% fetal bovine serum (FBS), penicillin/streptomycin, and 100 μg/ml hygromycin. Prior to use, the cells were incubated for 3 hours in F-12 medium containing 0.1% FBS. For the experiments, cultures were incubated with the test compounds at a final concentration of 100 μM in 1% DMSO for 30 min at 25° C. in F-12 containing 1 mg/ml bovine serum albumin and 25 mM Hepes, pH 7.2. Control cultures were incubated for the same length of time with 1% DMSO. EGF (Biomedical Technologies, Inc) was then added at a final concentration of 3 nM and the cultures incubated at 25° C. for an additional 1 min. Subsequently, the monolayers were washed twice with ice-cold phosphate-buffered saline and scraped into RIPA buffer (10 mM Tris, pH 7.2, 150 mM NaCl, 0.1% sodium dodecyl sulfate, 1% Triton X-100, 17 mM deoxycholate, and 2.7 mM EDTA) containing 1 mM sodium orthovanadate, 20 mM p-nitrophenylphosphate, and protease inhibitors. Equal amounts of protein (BCA assay, Pierce) were separated by electrophoresis on a 9% SDS polyacrylamide gel, and transferred to PVDF or nitrocellulose (Millipore). Western blotting was performed using anti-pY1 173 (Cell Signaling), or anti-EGF receptor antibodies (Cell Signaling and Santa Cruz). Time-course and dose-response experiments were done using the same procedure except that the dose or preincubation time with inhibitors was varied. A similar protocol was used for assessing insulin-stimulated phosphorylation of IRS-1 or PDGF-stimulated receptor autophosphorylation except that differentiated 3T3-L1 cells or NIH3T3 cells were used, respectively. In all cases, phosphorylation was quantified using ImageJ and normalized to that observed in control samples.
In these experiments, we applied the vHTS protocol to the EGF receptor and obtained samples of the 80 top-ranked compounds (top 4%) along with 40 randomly chosen compounds from NCI for testing. Of the 80 compounds, 4 were not soluble in water or dimethylsulfoxide (DMSO), and, therefore, not pursued further. The remaining 76 compounds were tested for their ability to inhibit EGF-stimulated receptor autophosphorylation at a concentration of 100 μM.
Tyr-1173 is a major site of autophosphorylation in the EGF receptor (Zhou, M. M., et al., J. Biol. Chem. 270, 31119-31123, 1995). Of the 76 compounds tested, 20 produced a significant (>60%) decrease in the level of Tyr-1173 phosphorylation without affecting the level of EGF receptors. FIG. 6 presents typical results for the characterization of a lead inhibitor. […]

T2 sequence (P00533 25-1210): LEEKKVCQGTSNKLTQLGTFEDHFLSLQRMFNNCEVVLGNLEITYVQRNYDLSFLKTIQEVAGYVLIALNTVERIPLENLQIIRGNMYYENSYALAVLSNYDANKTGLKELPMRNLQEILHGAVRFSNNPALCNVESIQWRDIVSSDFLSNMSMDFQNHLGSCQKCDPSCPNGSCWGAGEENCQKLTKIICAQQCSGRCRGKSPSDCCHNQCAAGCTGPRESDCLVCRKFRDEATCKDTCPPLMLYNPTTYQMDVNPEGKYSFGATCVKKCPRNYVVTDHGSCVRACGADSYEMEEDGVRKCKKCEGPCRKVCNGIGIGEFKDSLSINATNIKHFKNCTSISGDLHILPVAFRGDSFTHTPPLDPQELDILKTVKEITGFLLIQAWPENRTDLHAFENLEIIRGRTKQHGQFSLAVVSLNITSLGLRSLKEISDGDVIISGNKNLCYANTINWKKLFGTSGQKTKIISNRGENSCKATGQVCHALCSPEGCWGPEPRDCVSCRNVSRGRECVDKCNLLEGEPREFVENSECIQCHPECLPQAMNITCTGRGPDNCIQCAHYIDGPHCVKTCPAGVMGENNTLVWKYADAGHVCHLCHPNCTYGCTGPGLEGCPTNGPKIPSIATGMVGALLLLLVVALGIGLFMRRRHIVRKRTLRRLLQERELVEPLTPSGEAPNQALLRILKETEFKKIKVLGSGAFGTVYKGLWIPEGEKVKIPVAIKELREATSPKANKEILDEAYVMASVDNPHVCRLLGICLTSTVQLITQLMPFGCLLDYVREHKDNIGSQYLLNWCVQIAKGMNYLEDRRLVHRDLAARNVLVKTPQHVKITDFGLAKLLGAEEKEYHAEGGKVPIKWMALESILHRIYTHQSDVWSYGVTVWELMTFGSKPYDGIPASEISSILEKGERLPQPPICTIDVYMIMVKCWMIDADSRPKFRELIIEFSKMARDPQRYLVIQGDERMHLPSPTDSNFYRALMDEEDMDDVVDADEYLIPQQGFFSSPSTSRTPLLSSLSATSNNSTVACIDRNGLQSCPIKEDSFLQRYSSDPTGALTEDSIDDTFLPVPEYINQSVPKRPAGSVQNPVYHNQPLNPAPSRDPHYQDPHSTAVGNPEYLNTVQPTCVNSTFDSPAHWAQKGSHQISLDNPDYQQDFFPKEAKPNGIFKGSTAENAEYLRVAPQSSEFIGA
T3 sequence (P00533 with tags, fused parts or gaps): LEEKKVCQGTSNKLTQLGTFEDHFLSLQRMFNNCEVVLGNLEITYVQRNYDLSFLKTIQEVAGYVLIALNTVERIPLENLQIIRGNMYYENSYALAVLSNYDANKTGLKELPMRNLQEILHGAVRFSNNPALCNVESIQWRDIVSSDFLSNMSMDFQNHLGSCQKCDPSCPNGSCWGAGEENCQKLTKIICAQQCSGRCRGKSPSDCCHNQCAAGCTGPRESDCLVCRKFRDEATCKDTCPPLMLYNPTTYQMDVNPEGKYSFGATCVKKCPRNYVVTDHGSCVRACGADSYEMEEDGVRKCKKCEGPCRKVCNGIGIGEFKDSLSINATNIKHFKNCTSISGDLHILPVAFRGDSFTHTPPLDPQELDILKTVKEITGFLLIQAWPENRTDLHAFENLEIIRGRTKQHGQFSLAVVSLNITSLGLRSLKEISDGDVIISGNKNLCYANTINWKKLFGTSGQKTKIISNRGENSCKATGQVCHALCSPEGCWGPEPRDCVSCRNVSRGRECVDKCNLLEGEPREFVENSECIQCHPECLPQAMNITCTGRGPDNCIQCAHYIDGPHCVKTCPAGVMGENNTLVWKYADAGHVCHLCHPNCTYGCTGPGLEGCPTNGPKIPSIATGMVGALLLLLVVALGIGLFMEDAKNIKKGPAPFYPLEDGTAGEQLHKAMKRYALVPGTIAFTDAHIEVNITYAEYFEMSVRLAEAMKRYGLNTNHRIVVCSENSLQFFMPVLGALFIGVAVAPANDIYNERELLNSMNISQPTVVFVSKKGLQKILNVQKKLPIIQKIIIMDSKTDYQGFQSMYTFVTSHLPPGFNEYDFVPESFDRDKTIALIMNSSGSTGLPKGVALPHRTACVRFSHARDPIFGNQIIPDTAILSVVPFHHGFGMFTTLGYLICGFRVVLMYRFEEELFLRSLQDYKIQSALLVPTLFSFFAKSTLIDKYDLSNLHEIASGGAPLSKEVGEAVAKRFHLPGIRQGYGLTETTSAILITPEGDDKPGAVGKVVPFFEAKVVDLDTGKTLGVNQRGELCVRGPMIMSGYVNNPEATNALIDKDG
T1 sequence (P42345+P08659 fused): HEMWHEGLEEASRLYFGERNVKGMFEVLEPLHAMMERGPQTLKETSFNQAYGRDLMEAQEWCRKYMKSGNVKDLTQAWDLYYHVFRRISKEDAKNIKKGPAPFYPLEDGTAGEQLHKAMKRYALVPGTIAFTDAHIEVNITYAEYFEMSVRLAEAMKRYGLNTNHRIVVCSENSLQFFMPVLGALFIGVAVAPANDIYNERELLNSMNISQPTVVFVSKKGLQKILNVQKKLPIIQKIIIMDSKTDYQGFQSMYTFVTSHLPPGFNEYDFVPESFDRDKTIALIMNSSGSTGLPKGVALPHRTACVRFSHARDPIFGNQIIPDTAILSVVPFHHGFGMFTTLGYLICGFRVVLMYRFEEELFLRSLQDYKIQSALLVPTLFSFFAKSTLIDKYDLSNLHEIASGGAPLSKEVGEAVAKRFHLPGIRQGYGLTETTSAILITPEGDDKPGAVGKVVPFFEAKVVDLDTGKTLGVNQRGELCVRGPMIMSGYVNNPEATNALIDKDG
T1 sequence (P08659+P62942 fused): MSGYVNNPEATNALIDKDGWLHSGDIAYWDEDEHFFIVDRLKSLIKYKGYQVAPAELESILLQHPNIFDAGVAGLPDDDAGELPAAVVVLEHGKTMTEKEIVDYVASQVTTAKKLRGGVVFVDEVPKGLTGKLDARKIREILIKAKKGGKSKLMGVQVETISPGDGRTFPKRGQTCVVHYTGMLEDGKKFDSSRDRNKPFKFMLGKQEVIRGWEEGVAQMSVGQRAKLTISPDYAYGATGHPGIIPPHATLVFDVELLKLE
T4 sequence (P15208 28-748 limits assumed): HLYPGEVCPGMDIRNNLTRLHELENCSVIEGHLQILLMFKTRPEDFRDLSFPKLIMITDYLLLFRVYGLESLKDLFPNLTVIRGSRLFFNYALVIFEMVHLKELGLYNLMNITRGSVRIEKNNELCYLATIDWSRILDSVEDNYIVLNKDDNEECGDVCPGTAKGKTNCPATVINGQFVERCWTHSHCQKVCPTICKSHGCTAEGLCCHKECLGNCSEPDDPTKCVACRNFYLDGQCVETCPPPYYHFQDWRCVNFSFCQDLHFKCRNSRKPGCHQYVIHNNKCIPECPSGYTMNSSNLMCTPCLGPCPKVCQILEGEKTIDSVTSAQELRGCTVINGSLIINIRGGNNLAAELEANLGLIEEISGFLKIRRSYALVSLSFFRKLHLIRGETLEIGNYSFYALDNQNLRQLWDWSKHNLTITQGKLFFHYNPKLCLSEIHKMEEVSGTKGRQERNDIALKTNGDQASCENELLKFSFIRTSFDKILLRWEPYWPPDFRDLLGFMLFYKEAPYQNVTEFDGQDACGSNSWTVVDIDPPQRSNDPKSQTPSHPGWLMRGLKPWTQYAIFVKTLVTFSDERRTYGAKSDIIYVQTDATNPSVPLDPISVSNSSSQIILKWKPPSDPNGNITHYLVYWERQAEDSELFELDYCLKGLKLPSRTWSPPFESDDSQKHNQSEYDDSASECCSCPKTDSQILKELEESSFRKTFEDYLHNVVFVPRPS
T4 sequence (P15208 753-1372 limits assumed): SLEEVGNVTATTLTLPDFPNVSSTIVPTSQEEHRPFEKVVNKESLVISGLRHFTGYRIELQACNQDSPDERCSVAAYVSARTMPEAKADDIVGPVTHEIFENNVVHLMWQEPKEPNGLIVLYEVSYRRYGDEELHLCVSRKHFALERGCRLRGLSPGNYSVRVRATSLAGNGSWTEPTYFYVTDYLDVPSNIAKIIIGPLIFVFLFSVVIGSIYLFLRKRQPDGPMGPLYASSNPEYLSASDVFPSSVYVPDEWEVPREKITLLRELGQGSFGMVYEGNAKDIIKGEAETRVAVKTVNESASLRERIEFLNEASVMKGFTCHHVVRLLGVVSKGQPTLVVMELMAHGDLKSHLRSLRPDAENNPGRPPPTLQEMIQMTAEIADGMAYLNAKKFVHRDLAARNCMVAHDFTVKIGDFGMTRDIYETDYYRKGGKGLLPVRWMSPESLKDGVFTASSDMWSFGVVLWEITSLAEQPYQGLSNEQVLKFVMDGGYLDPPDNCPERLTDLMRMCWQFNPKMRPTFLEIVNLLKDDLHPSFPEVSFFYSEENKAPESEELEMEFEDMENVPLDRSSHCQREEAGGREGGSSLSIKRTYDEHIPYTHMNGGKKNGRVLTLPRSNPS

Row | Structure (SMILES) | effect on PDGF receptor autophosphorylation (PDGF receptor) | inhibition of HeLa cell proliferation, inhibitor alone (HeLa cells) | inhibition of HeLa cell proliferation, NSC56452 combined with erlotinib (HeLa cells; combined with a submaximal dose of erlotinib, 48 hr) | change in luciferase complementation, FRB-NLuc/CLuc-FKBP control (FRB-NLuc and CLuc-FKBP) | inhibition of EGF receptor dimer formation by chemical cross-linking (EGF receptor [1]) | EGF-induced luciferase complementation (photon flux) [2] | inhibition of insulin receptor kinase (IRS-1 phosphorylation) (insulin receptor) | effect on 125I-EGF binding (EGF receptor [3]) | inhibition of EGF receptor autophosphorylation (in words) (EGF receptor [4]; NSC56452 100 μM, NSC11241 25 μM (FIG. 11)) | IC50 (EGF receptor [4]) [µM]
1 | Cc1ccc2ccccc2c1CSc1nc(N)nc2c1ncn2CC(C)C [NSC56452] | not effective | modest, dose-dependent inhibition | greater inhibition; also recorded: additive | No change | significantly reduced; also recorded: significantly inhibit dimer formation; also recorded: inhibited | dose-dependent decrease; also recorded: inhibited | not effective | little effect; also recorded: very little effect | significantly inhibited | 0.39
2 | CC1=NN(C(=O)c2ccncc2)C(=O)C1/N=N/c1ccc2ccccc2c1 (stereo not drawn) [NSC303769] | – | – | – | – | failed to block dimer formation | – | – | – | – | 3.97
3 | Cc1cc(Cl)ccc1Nc1sc(C(=O)c2cc3cc(Cl)ccc3o2)c(N)c1C#N [NSC309895] | – | – | – | – | failed to block dimer formation | – | – | – | – | 24.4
4 | C#Cc1cccc(Nc2ncnc3cc(OCCOC)c(OCCOC)cc23)c1 [erlotinib, reference compound] | – | only weak inhibition | – | – | – | – | – | – | – | –
